# pIC50: −log10 of the molar value.
# Test system: T1, IRAK1/4 human
# T1 construct: fused on or other part: His tag and TEV cleavage site at the N-terminus
# Assay: IRAK1/4 phosphorylation IC50 (enzymatic assay, table 2)
# Assay type: biochemical
# Conditions: human IRAK1/4 phosphorylation
# In short: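 The IC50 values describe inhibition of His-TEV-tagged human IRAK-1 or IRAK-4. Each enzyme was incubated with ATP and compounds in DMSO at 20 µM to 1 nM for 2 or 3 hours, with STK1-biotin peptide included for IRAK-4.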
row,SMILES,pIC50
1,O=C(c1ccc(-n2cc(-c3n[nH]c4cc(Cl)ccc34)nn2)cc1)N1CCOCC1 [Example 185],6.00 to 7.00
2,CN1CCC(n2cc(-n3cc(-c4n[nH]c5ccccc45)nn3)cn2)CC1 [Example 186],> 7.00
3,OCc1ccc(-n2cc(-c3n[nH]c4ccccc34)nn2)cc1 [Example 187],6.00 to 7.00
4,COc1cc2[nH]nc(-c3cn(-c4ccc(C(=O)N5CCOCC5)cc4)nn3)c2cc1OC [Example 189],6.00 to 7.00
5,O=C(c1ccc(-n2cc(-c3n[nH]c4ccc(Cn5nc(-c6ccc(O)c(F)c6)ccc5=O)cc34)nn2)cc1)N1CCOCC1 [Example 190],> 7.00
6,O=C(c1ccc(-n2cc(-c3n[nH]c4ccc(O)cc34)nn2)cc1)N1CCOCC1 [Example 192],> 7.00
7,O=C(c1ccc(-n2cc(-c3n[nH]c4ccc(Cl)cc34)nn2)cc1)N1CCOCC1 [Example 193],6.00 to 7.00
8,O=C(c1ccc(-n2cc(-c3n[nH]c4cc(F)ccc34)nn2)cc1)N1CCOCC1 [Example 194],6.00 to 7.00
9,COc1ccc2c(-c3cn(-c4ccc(C(=O)N5CCOCC5)cc4)nn3)n[nH]c2c1 [Example 195],6.00 to 7.00
10,O=c1ccc(-c2ccncc2)nn1Cc1ccc2[nH]nc(-c3cn(-c4ccc(CN5CCOCC5)cc4)nn3)c2c1 [Example 196],> 7.00
11,OCc1ccc2[nH]nc(-c3cn(-c4ccc(CN5CCOCC5)cc4)nn3)c2c1 [Example 198],6.00 to 7.00
12,O=c1ccc(-c2ccc(O)cc2)nn1Cc1ccc2[nH]nc(-c3cn(-c4ccc(CN5CCOCC5)cc4)nn3)c2c1 [Example 199],6.00 to 7.00
13,O=c1ccc(-c2cccc(O)c2)nn1Cc1ccc2[nH]nc(-c3cn(-c4ccc(CN5CCOCC5)cc4)nn3)c2c1 [Example 200],> 7.00
14,C=C(C)c1ccc2c(-c3cn(-c4ccc(C(=O)N5CCOCC5)cc4)nn3)n[nH]c2c1 [Example 201],6.00 to 7.00
15,COc1cc2[nH]nc(-c3cn(-c4ccc(C(=O)N5CCOCC5)cc4)nn3)c2cc1Br [Example 202],5.30 to 6.00
16,O=C(c1ccc(-n2cc(-c3n[nH]c4cc(-c5ccccc5)ccc34)nn2)cc1)N1CCOCC1 [Example 203],5.30 to 6.00
17,c1ccc2c(-c3cn(-c4ccc(CC5CCNCC5)cc4)nn3)n[nH]c2c1 [Example 205],6.00 to 7.00
18,CC(C)c1ccc2c(-c3cn(-c4ccc(C(=O)N5CCOCC5)cc4)nn3)n[nH]c2c1 [Example 206],6.00 to 7.00
19,O=C(c1ccc(-n2cc(-c3n[nH]c4cc(-c5ccc(CO)cc5)ccc34)nn2)cc1)N1CCOCC1 [Example 207],5.30 to 6.00
20,O=C(c1ccc(-n2cc(-c3n[nH]c4cc(Br)ccc34)nn2)cc1)N1CCOCC1 [Example 208],6.00 to 7.00
21,Cn1cc(-c2ccc3c(-c4cn(-c5ccc(C(=O)N6CCOCC6)cc5)nn4)n[nH]c3c2)cn1 [Example 209],5.30 to 6.00
22,CN1CCC(c2ccc(-n3cc(-c4n[nH]c5ccccc45)nn3)cc2)CC1 [Example 211],6.00 to 7.00
23,COC/C=C/c1ccc2c(-c3cn(-c4ccc(C(=O)N5CCOCC5)cc4)nn3)n[nH]c2c1 [Example 212],6.00 to 7.00
24,COCC#Cc1ccc2c(-c3cn(-c4ccc(C(=O)N5CCOCC5)cc4)nn3)n[nH]c2c1 [Example 213],5.30 to 6.00
25,O=C(c1ccc(-n2cc(-c3n[nH]c4cc(-c5ccncc5)ccc34)nn2)cc1)N1CCOCC1 [Example 214],6.00 to 7.00

row,SMILES,pIC50
1,O=C(c1ccc(-n2cc(-c3n[nH]c4cc(C#CCCO)ccc34)nn2)cc1)N1CCOCC1 [Example 215],5.30 to 6.00
2,O=C(c1ccc(-n2cc(-c3n[nH]c4cc(CCCCO)ccc34)nn2)cc1)N1CCOCC1 [Example 216],6.00 to 7.00
3,O=C(c1ccc(-n2cc(-c3n[nH]c4cc(C5=CCOCC5)ccc34)nn2)cc1)N1CCOCC1 [Example 217],6.00 to 7.00
4,CCC(O)CCc1ccc2c(-c3cn(-c4ccc(C(=O)N5CCOCC5)cc4)nn3)n[nH]c2c1 (stereo not drawn) [Example 218],5.30 to 6.00
5,NCC#Cc1ccc2c(-c3cn(-c4ccc(C(=O)N5CCOCC5)cc4)nn3)n[nH]c2c1 [Example 219],5.30 to 6.00
6,COCCCc1ccc2c(-c3cn(-c4ccc(C(=O)N5CCOCC5)cc4)nn3)n[nH]c2c1 [Example 220],6.00 to 7.00
7,C#Cc1ccc2c(-c3cn(-c4ccc(C(=O)N5CCOCC5)cc4)nn3)n[nH]c2c1 [Example 221],6.00 to 7.00
8,O=C(c1ccc(-n2cc(-c3n[nH]c4ccc(NC5CCCOC5)cc34)nn2)cc1)N1CCOCC1 (stereo not drawn) [Example 222],6.00 to 7.00
9,CN1CCC(Nc2ccc3[nH]nc(-c4cn(-c5ccc(C(=O)N6CCOCC6)cc5)nn4)c3c2)CC1 [Example 223],> 7.00
10,CN1C2CCC1CC(n1cc(-n3cc(-c4n[nH]c5ccc(F)cc45)nn3)cn1)C2 (stereo not drawn) [Example 226],6.00 to 7.00
11,CN1C2CCC1CC(n1cc(-n3cc(-c4n[nH]c5ccc(Cl)cc45)nn3)cn1)C2 (stereo not drawn) [Example 227],6.00 to 7.00
12,O=C(NC1CCOCC1)c1ccc2[nH]nc(-c3cn(-c4ccc(CN5CCOCC5)cc4)nn3)c2c1 [Example 228],6.00 to 7.00
13,CN1C2CCC1CC(n1cc(-n3cc(-c4n[nH]c5cc(F)ccc45)nn3)cn1)C2 (stereo not drawn) [Example 229],> 7.00
14,O=C(NCc1cccc(O)c1)c1ccc2[nH]nc(-c3cn(-c4ccc(CN5CCOCC5)cc4)nn3)c2c1 [Example 230],> 7.00
15,O=C(NC1CCC(O)CC1)c1ccc2[nH]nc(-c3cn(-c4ccc(CN5CCOCC5)cc4)nn3)c2c1 (stereo not drawn) [Example 231],6.00 to 7.00
16,CC(C)c1ccc(-n2cc(-c3n[nH]c4ccccc34)nn2)cc1 [Example 232],5.30 to 6.00
17,NC(=O)COc1ccc2c(-c3cn(-c4ccc(C(=O)N5CCOCC5)cc4)nn3)n[nH]c2c1 [Example 233],6.00 to 7.00
18,COCCOc1ccc2c(-c3cn(-c4ccc(C(=O)N5CCOCC5)cc4)nn3)n[nH]c2c1 [Example 234],5.30 to 6.00
19,O=C(c1ccc(-n2cc(-c3n[nH]c4cc(O)ccc34)nn2)cc1)N1CCOCC1 [Example 235],6.00 to 7.00
20,O=C(c1ccc2[nH]nc(-c3cn(-c4ccc(CN5CCOCC5)cc4)nn3)c2c1)N1CCC(c2ccncc2)CC1 [Example 236],6.00 to 7.00
21,CN(C)C1CCN(C(=O)c2ccc3[nH]nc(-c4cn(-c5ccc(CN6CCOCC6)cc5)nn4)c3c2)CC1 [Example 237],6.00 to 7.00
22,c1ccc2c(-c3cn(-c4ccc(C5CCN(CC6CCCO6)CC5)cc4)nn3)n[nH]c2c1 (stereo not drawn) [Example 239],6.00 to 7.00
23,O=C(c1ccc(-n2cc(-c3n[nH]c4cc(/C=C/CO)ccc34)nn2)cc1)N1CCOCC1 [Example 240],> 7.00
24,CN(C)S(=O)(=O)c1ccc(-n2cc(-c3n[nH]c4ccccc34)nn2)cc1 [Example 241],6.00 to 7.00
25,O=C(c1ccc(-n2cc(-c3n[nH]c4ccc(N5CCCC(F)(F)C5)cc34)nn2)cc1)N1CCOCC1 [Example 242],6.00 to 7.00

row,SMILES,pIC50
1,O=S(=O)(c1ccc(-n2cc(-c3n[nH]c4ccccc34)nn2)cc1)N1CCOCC1 [Example 243],6.00 to 7.00
2,O=C(c1ccc(-n2cc(-c3n[nH]c4cc(NCCO)ccc34)nn2)cc1)N1CCOCC1 [Example 244],6.00 to 7.00
3,CC(CO)Nc1ccc2c(-c3cn(-c4ccc(C(=O)N5CCOCC5)cc4)nn3)n[nH]c2c1 (stereo not drawn) [Example 245],6.00 to 7.00
4,c1ccc2c(-c3cn(-c4ccc(N5CCNCC5)cc4)nn3)n[nH]c2c1 [Example 246],6.00 to 7.00
5,c1ccc2c(-c3cn(-c4ccc(CN5CCCCC5)cc4)nn3)n[nH]c2c1 [Example 247],6.00 to 7.00
6,O=C(c1ccc(-n2cc(-c3n[nH]c4ccc(NCC5CCOCC5)cc34)nn2)cc1)N1CCOCC1 [Example 248],6.00 to 7.00
7,c1ccc2c(-c3cn(-c4ccc(C5CC6CCC(C5)N6C5COC5)cc4)nn3)n[nH]c2c1 (stereo not drawn) [Example 249],6.00 to 7.00
8,O=C(c1ccc(-n2cc(-c3n[nH]c4ccc(N5CCN6CCCC6C5)cc34)nn2)cc1)N1CCOCC1 (stereo not drawn) [Example 250],6.00 to 7.00
9,c1ccc2c(-c3cn(-c4ccc(C5CCCNC5)cc4)nn3)n[nH]c2c1 (stereo not drawn) [Example 252],> 7.00
10,CN1[C@@H]2CC[C@H]1C[C@@H](c1ccc(-n3cc(-c4n[nH]c5cc(F)ccc45)nn3)cc1)C2 [Example 253],> 7.00
11,O=C(c1ccc(-n2cc(-c3n[nH]c4ccc(N5CCCC(O)C5)cc34)nn2)cc1)N1CCOCC1 (stereo not drawn) [Example 254],6.00 to 7.00
12,c1ccc2c(-c3cn(-c4ccc([C@@H]5C[C@H]6CC[C@@H](C5)N6)cc4)nn3)n[nH]c2c1 [Example 255],> 7.00
13,c1ccc2c(-c3cn(-c4ccc([C@H]5C[C@H]6CC[C@@H](C5)N6)cc4)nn3)n[nH]c2c1 [Example 256],> 7.00
14,O=C(c1ccc(-n2cc(-c3n[nH]c4ccc(NC5CCCNC5)cc34)nn2)cc1)N1CCOCC1 (stereo not drawn) [Example 257],> 7.00
15,Nc1ccc(-c2ccc(-n3cc(-c4n[nH]c5ccccc45)nn3)cc2)cn1 [Example 258],6.00 to 7.00
16,O=S1(=O)CCN(Cc2ccc(-n3cc(-c4n[nH]c5ccccc45)nn3)cc2)CC1 [Example 259],6.00 to 7.00
17,Cc1cc(-c2ccc(-n3cc(-c4n[nH]c5ccccc45)nn3)cc2)ccn1 [Example 260],6.00 to 7.00
18,Cn1cc(-c2ccc(-n3cc(-c4n[nH]c5ccccc45)nn3)cc2)cn1 [Example 261],6.00 to 7.00
19,c1ccc2c(-c3cn(-c4ccc(-c5cnn(CCN6CCOCC6)c5)cc4)nn3)n[nH]c2c1 [Example 262],6.00 to 7.00
20,FC(F)(F)c1cc(-n2cc(-c3n[nH]c4ccccc34)nn2)ccc1C1CCNCC1 [Example 263],6.00 to 7.00
21,O=C(c1ccc(-n2cc(-c3n[nH]c4ccc(N5CCOC(CCO)C5)cc34)nn2)cc1)N1CCOCC1 (stereo not drawn) [Example 264],6.00 to 7.00
22,Cc1ccc2c(-c3cn(-c4ccc(C5CCNCC5)cc4)nn3)n[nH]c2c1 [Example 265],> 7.00
23,Fc1ccc2c(-c3cn(-c4ccc(C5CCNCC5)cc4)nn3)n[nH]c2c1 [Example 266],> 7.00
24,CN1CCC(c2ccc(-n3cc(-c4n[nH]c5ccccc45)nn3)cc2C(F)(F)F)CC1 [Example 267],6.00 to 7.00
25,COc1cc(-n2cc(-c3n[nH]c4ccccc34)nn2)ccc1C1CCNCC1 [Example 268],> 7.00
